# Source: patent publication US20120264784A1, “METHODS OF TREATING ELEVATIONS IN MTOR SIGNALING” (priority 2009, published 2012)
# What was measured:
# [1] = tested on: area CA1 of hippocampal slices; assay: DHPG induced mGluR-LTD, field EPSP recordings in acute hippocampal slices; parameters: species or system mice
# Description: Acute hippocampal slices were prepared from P25-30 animals in ice-cold dissection buffer containing (in mM): NaCl 87, Sucrose 75, KCl 2.5, NaH2PO4 1.25, NaHCO3 25, CaCl2 0.5, MgSO4 7, Ascorbic acid 1.3, and D-glucose 10 (saturated with 95% O2/5% CO2). Immediately following slicing the CA3 region was removed. Slices were recovered in artificial cerebrospinal fluid (ACSF) containing (in mM): NaCl 124, KCl 5, NaH2PO4 1.23, NaHCO3 26, CaCl2 2, MgCl2 1 and D-glucose 10 (saturated with 95% O2/5% CO2) at 32.5° C. for about >3 hours prior to recording.
# (§1) Field recordings were performed in a submersion chamber, perfused with ACSF (about 2-3 ml/min) at 30° C. Field EPSPs (fEPSPs) were recorded in CA1 stratum radiatum with extracellular electrodes filled with ACSF. Baseline responses were evoked by stimulation of the Schaffer collaterals at 0.033 Hz with a 2-contact cluster electrode (FHC) using about a 0.2 ms stimulus yielding about 40-60% of the maximal response. fEPSP recordings were filtered at about 0.1 Hz-1 kHz, digitized at 10 kHz, and analyzed using pClamp9 (Axon Instruments). The initial slope of the response was used to assess changes in synaptic strength. Data were normalized to the baseline response and are presented as group means±SEM. LTD was measured by comparing the average response about 55-60 minutes post DHPG application to the average of the last 5 minutes of baseline.
# (§2) Input output function was examined by stimulating slices with incrementally increasing current (about 20, about 40, about 80, about 120, about 200, about 300 μA) and recording the fEPSP response. Paired pulse facilitation was induced by applying two pulses at different interstimulus intervals (about 10, about 20, about 50, about 100, about 200, about 300, about 500 ms). Facilitation was measured by the ratio of the fEPSP slope of stimulus 2 to stimulus 1. NMDAR-dependent LTD was induced by delivering 900 test pulses at 1 Hz. mGluR-LTD was induced by applying R, S-Dihydroxyphenylglycine (R,S-DHPG, 50 μM) or S-Dihydroxyphenylglycine (S-DHPG, 25 μM) for about 5 minutes, the effects of which were followed for 60 minutes following treatment. In some experiments slices were incubated with the protein synthesis inhibitor cycloheximide (60 μM) for 30 minutes as follows: about 20 minutes during baseline recording, about 5 minutes during DHPG application and about 5 minutes post DHPG application.
# For mGluR PAM experiments, slices were pretreated with CDPPB (10 μM) or DMSO control for about 30 minutes in same manner as above, either in the presence of cycloheximide or control ACSF. For rapamycin experiments, slices were pretreated with rapamycin (20 nM) or DMSO control, with or without cycloheximide, for at least 30 minutes prior to DHPG application and throughout the entire experiment.
# [2] = tested on: area CA1 of hippocampal slices; assay: Paired pulse facilitation (presynaptic LTD) in acute hippocampal slices; parameters: species or system mice; settings: for PPF (ratio of fEPSP slope of stimulus 2 to stimulus 1): 50 ms inter-stimulus interval, 60 minutes post DHPG (FIG. 3D)
# Description: as §1, §2
# [3] = tested on: wildtype and Tsc2^+/− mice; assay: Context fear-conditioning (context discrimination); type: in vivo; settings: for effect on context discrimination (in words): 10 mg/kg i.p. 30 minutes prior to training; for percentage of time spent freezing: single injection 10 mg/kg i.p. 30 minutes prior to training, tested 24 hours later
# Description: Context fear-conditioning experiments were employed to assess improvements in cognitive processing following administration of a composition that activates Group I mGluR signaling, such as by administration of mGluR5PAMs. Context fear-conditioning was performed using a modification of a previously described procedure (Ehninger, D., et al., Nat Med 14, 843-8 (2008). Wildtype and Tsc2^+/− mice (8-12 weeks old) are habituated to the testing room and experimenter for 3 days prior to training On the day of training, mice is placed in the training context and delivered one 0.80 mA shocks (2 sec). The mice were allowed about 3 minutes to explore context before conditioning and were removed about 15 sec after the shock was given and returned to home cage. Conditioned fear response was assessed 24 hours later by a trained observer measuring the percentage of time spent freezing during the test period (about 3 min session). To determine context specificity of the conditioned response, mice trained at the same time were separated into two groups: one group was tested in the same training context and the other tested in a novel context. This novel context was created by varying: distal cues, odor, floor material, and lighting of the testing apparatus. For rescue experiments, animals received a single injection of CDPPB (10 mg/kg, i.p.) about 30 minutes prior to training session.
# Cognitive impairments in the Tsc2^+/− mice were improved by treating the animals with the mTORC1 inhibitor rapamycin (Ehninger, D., et al., Nat. Med. 14: 843-848 (2008)). A robust phenotype was reported to be an impairment in the ability of the Tsc2^+/− mice to distinguish between familiar and novel contexts in a fear conditioning paradigm. The advantage of this paradigm is the learning occurs in one trial, making it amenable to acute drug treatment, and the memory is hippocampus-dependent. The mice are first exposed to a distinctive context in which they receive an aversive foot shock. The next day, context discrimination is tested by dividing the animals into two groups, one placed in the familiar context associated with the shock, and the other placed in a novel context (FIG. 6A). Context discrimination is assessed by measuring the time the animals express fear by freezing in each context.
smiles,measurement,setting,value
"N[C@@H](C(=O)O)c1cc(O)cc(O)c1 (racemic) [DHPG, (R,S)-3,5-dihydroxyphenylglycine]",DHPG induced LTD (fEPSP slope normalized to baseline),"[1]; slices from Tsc2^+/− mice, DHPG alone, 5 min, 55-60 min post DHPG (FIG. 3B)",85.2±2.7%
same,DHPG induced LTD (fEPSP slope normalized to baseline),"[1]; slices from WT mice, DHPG alone, 5 min, 55-60 min post DHPG (FIG. 3B)",74.1±2.0%
same,PPF (ratio of fEPSP slope of stimulus 2 to stimulus 1),[2]; Tsc2^+/− slices,1.63±0.02
same,PPF (ratio of fEPSP slope of stimulus 2 to stimulus 1),[2]; WT slices,1.59±0.04
"N#Cc1cccc(C(=O)Nc2cc(-c3ccccc3)nn2-c2ccccc2)c1 [CDPPB, 3-cyano-N-(1,3-diphenyl-1H-pyrazol-5-yl)benzamide]",effect on DHPG induced LTD (in words),[1]; slices from Tsc2^+/− mice,restored the magnitude of mGluR-LTD in Tsc2^+/− mice to WT levels
same,DHPG induced LTD (fEPSP slope normalized to baseline),"[1]; slices from Tsc2^+/− mice, CDPPB 10 μM co-applied with cycloheximide (FIG. 5E)",84.8±1.8%
same,DHPG induced LTD (fEPSP slope normalized to baseline),"[1]; slices from Tsc2^+/− mice, pretreatment with CDPPB 10 μM (FIG. 5D)",72.7±4.4%
same,effect on DHPG induced LTD in the presence of cycloheximide (in words),"[1]; slices from Tsc2^+/− mice, with cycloheximide",completely eliminated by cycloheximide
same,effect on context discrimination (in words),[3]; Tsc2^+/− mice,sufficient to correct the deficit in context discrimination
same,percentage of time spent freezing,"[3]; Tsc2^+/− mice, familiar context",44.5±4.3%
same,percentage of time spent freezing,"[3]; Tsc2^+/− mice, novel context",31.6±3%
same,effect on context discrimination (in words),[3]; WT mice,no effect
same,percentage of time spent freezing,"[3]; WT mice, familiar context",42.3±3.7%
same,percentage of time spent freezing,"[3]; WT mice, novel context",26.4±3.6%
"C[C@@H]1C[C@@H]([C@H](O)CC2CC(=O)NC(=O)C2)C(=O)[C@@H](C)C1 [CHX, cycloheximide]",effect on DHPG induced LTD (in words),[1]; slices from Tsc2^+/− mice,no effect on LTD
same,DHPG induced LTD (fEPSP slope normalized to baseline),"[1]; slices from Tsc2^+/− mice, cycloheximide 60 μM (FIG. 3C)",83.5±2.1%
same,effect on DHPG induced LTD (in words),[1]; slices from WT mice,reliably reduced
same,DHPG induced LTD (fEPSP slope normalized to baseline),"[1]; slices from WT mice, pretreatment with cycloheximide 60 μM (FIG. 3A)",85.6±3.4%
same,PPF (ratio of fEPSP slope of stimulus 2 to stimulus 1),"[2]; Tsc2^+/− slices, DHPG+CHX",1.62±0.04
same,PPF (ratio of fEPSP slope of stimulus 2 to stimulus 1),"[2]; WT slices, DHPG+CHX",1.58±0.05
same,effect on changes in PPF following DHPG (in words),"[2]; WT slices, cycloheximide 60 μM (FIG. 3D)",not inhibited
"CO[C@H]1C[C@@H]2CC[C@@H](C)[C@@](O)(O2)C(=O)C(=O)N2CCCC[C@H]2C(=O)O[C@H]([C@H](C)C[C@@H]2CC[C@@H](O)[C@H](OC)C2)CC(=O)[C@H](C)/C=C(\C)[C@@H](O)[C@@H](OC)C(=O)[C@H](C)C[C@H](C)/C=C/C=C/C=C/1C [RAP, rapamycin]",DHPG induced LTD (fEPSP slope normalized to baseline),"[1]; slices from Tsc2^+/− mice, pretreatment with rapamycin 20 nM (FIG. 5B)",75.3±3%
same,DHPG induced LTD (fEPSP slope normalized to baseline),"[1]; slices from Tsc2^+/− mice, rapamycin 20 nM with cycloheximide (FIG. 5C)",89.3±2.4%
same,effect on DHPG induced LTD (in words),[1]; slices from WT mice,no effect
same,DHPG induced LTD (fEPSP slope normalized to baseline),"[1]; slices from wildtype animals, pretreatment with rapamycin 20 nM (FIG. 5A)",73.0%
